≈ marks a conversion by molar mass, not a printed value.
How the values were obtained:
[1] = MTT assay, cell viability; format: cell-based; conditions: human, MDA-MB-231 breast cancer cells, read-out: MTT incorporation (cell viability) as percentage of control
Description: After incubation, the medium was removed and formazan crystals were dissolved in detergent reagent following the manufacturer's instructions (ATCC). Optical density for each condition was determined at 570 nm. MTT incorporation was expressed as percentage of the control in the absence of compounds.

[2] = target: T1, chloroperoxidase (CPO) (Leptoxyphium fumago, UniProt P04963); assay: CPO-catalyzed degradation in CPO-H2O2-Cl- system, LC-Q-TOF-MS; format: biochemical, Caldariomyces fumago; design: The isolation of CPO proposed in this study was a modification of the protocol reported by Morris and Hager (1966); made in house; host or cells: native producer
T1 sequence (P04963 21-319 limits assumed): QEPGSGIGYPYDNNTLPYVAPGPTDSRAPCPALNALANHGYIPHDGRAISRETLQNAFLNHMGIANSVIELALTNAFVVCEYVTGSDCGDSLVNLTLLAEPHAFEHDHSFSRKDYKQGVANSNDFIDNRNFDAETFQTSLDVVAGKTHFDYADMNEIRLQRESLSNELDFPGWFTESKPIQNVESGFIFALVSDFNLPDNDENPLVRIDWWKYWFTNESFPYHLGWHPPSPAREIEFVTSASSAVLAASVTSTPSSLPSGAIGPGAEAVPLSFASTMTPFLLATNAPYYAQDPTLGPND
Description: The mixture was centrifuged at 3,000 g in Centriprep® centrifugal filter unit with a 30,000 Dalton cut-off membrane (EMD Millipore, Billerica, Mass., USA). The yielded product was collected after being centrifuged for 1 min. Ethyl acetate was used to extract the filtrate while shaking vigorously, and the supernatant was evaporated to dryness using nitrogen gas. The dried metabolites were dissolved in H2O/methanol (95:5 v/v) to achieve a final concentration of 1 mg/L (ppm). Each sample was either stored in a freezer at −20° C. or immediately run in the LC-Q-TOF-MS mass spectrometer system.
Chromatographic separation and identification of metabolites was performed using the Agilent 1290 Infinity UPLC system coupled with Agilent 6530 Q-TOF mass spectrometer. The Agilent MassHunter Data Acquisition Software (rev. B0.06.00) was used to control the UPLC and the mass spectrometer. Mass Hunter Qualitative Data Analysis Software (Rev. B.07.00) was used for data mining and identification. An Agilent ZORBAX Eclipse plus C18 Rapid Resolution High Definition (RRHD) column (100 mm×1.8 μm) was applied, with the column temperature set at 30° C. via a thermostatted column compartment (TCC). An infinity 1290 automatic injector was used to inject 1 μL of the sample to the column. […]

[3] = target: T1, chloroperoxidase (CPO); assay: CPO-catalyzed degradation of CBZ, UV-Vis at 285 nm; format: biochemical, Caldariomyces fumago; design: The isolation of CPO proposed in this study was a modification of the protocol reported by Morris and Hager (1966); made in house; host or cells: native producer; conditions: 20 mM Cl-, 0.07 mM CBZ, 0.07 mM H2O2, 2.5 nM CPO
Description: A VARIAN UV-Vis spectrophotometer (Cary 200 Bio) was used to collect the UV spectra of the degradation products. The drug solution was scanned by dissolving 0.07 mM CBZ in 100 mM KH2PO4 buffer with 20 mM KCl at pH 2.75. The same solution was monitored after being mixed with 0.35 mM H2O2. UV spectra were recorded after the addition of 5 nM CPO for 1 min., 2.5 min., and 4 min.
The effect of the concentration of chloride was investigated. Degradation was carried out in 100 mM phosphate buffer at pH 3.0 with 0.07 mM CBZ and 0.07 mM H2O2. Concentration of chloride was increased from 0 to 20 mM. 285 nm wavelength was monitored immediately after 2.5 nM CPO was added.
The degradation rate at pH range of 2.0 to 5.0 was investigated to probe the effect of pH on the CPO-catalyzed reaction. The reaction was carried out in 100 mM phosphate buffer with 20 mM KCl, 0.07 mM CBZ, and 0.07 mM H2O2. […] 285 nm wavelength was monitored immediately after the addition of 2.5 nM CPO. The calculated time was 0.2 to 0.4 min.
The degradation rate of CBZ was determined by different concentrations of H2O2, ranging from 0.07 to 0.71 mM, in 100 mM phosphate buffer with 20 mM KCl and 0.07 mM CBZ at pH 3.0. A wavelength of 285 nm was monitored immediately after the addition of 5 nM CPO. The degradation rate was calculated at 0.1 to 0.3 min.
The rate was calculated by monitoring absorbance at 285 nm from 0.1 to 0.2 min. […]

[4] = test system: C. pyrenoidosa; assay: Growth-inhibitory (eco-toxicity) test on freshwater green alga; format: cell-based, Chlorella pyrenoidosa; conditions: Auxenochlorella pyrenoidosa, 72 h; at the end of CPO-catalyzed degradation (product mixture of the named drug)
Description: Freshwater unicellular green alga, C. pyrenoidosa (provided by the Institute of Wuhan Hydrobiology, Chinese Academic of Science), was cultivated in nutrient media of blue green medium (BG11) at 298K and illuminated with cool-white fluorescent lights at a continuous light intensity of 2000 Lx. For cell experiments, C. pyrenoidosa was exposed, during its log growth phase, to the toxicant at five different concentrations (maintain final concentration ranging from 0.01 to 0.36 mg/L) for 3-4 days at 298K. The concentration of the alga was determined by monitoring the change of absorption at 680 nm (Ma et al., 2006). The toxicity tests for each drug concentration were conducted in triplicate.
The growth inhibition rate for each sample was calculated.
However, toxicity evaluation about the products from diclofenac and naproxen are not readily available. Biological assays offer a direct measure to evaluate the magnitude of the potential health risk of chemicals. Therefore, a growth-inhibitory test was carried out using C. Pyrenoidosa.

[5] = target: T1, chloroperoxidase (CPO); assay: CPO-catalyzed degradation of diclofenac and naproxen, HPLC; format: biochemical, C. fumago; design: CPO was isolated from the growth medium of C. fumago; made in house; host or cells: Caldariomyces fumago growth medium (native producer); conditions: for CPO concentration for complete degradation: 15 μmol/L drug, 0.1 mmol/L H2O2; for fraction of drug degraded within 1 min / time to complete degradation: optimum reaction condition; for pH of maximum degradation efficiency: pH range 2-6
Description: Enzymatic degradation of both drugs was carried out in 0.1 mol·L-1 phosphate buffer in a centrifugal tube with a total volume of 3.0 mL containing CPO (0.25-0.23 nmol·L-1), 20 mmol·L-1 KCl, and drugs (15 μmol·L^−1) at pH 2˜6 at 298K. The reaction was started by adding H2O2 (0.015-0.3 mmol·L^−1) in the absence of light under magnetic stirring and was continued for 20 min. The supernatant of the reaction mixture was extracted 3 times using ethyl acetate. The combined organic extract was concentrated by rotary evaporation (0.09 MPa, 308K) to remove the solvent. The extracts were then dissolved in acetonitrile and methanol, respectively, for HPLC (LC-20AT, Shimadzu) analysis. The mobile phase consisted of 80:20 (v/v) acetonitrile and water for diclofenac and 90:10 (v/v) methanol and water for naproxen, and the flow rate was 0.5 ml·min^−1. The detector was set at 274 nm and 235 nm for diclofenac and naproxen, respectively. The quantitative analysis of the target compounds was based on the standard curve (correlation coefficients were >0.999). The effect of reaction parameters (pH, concentration of enzyme/H2O2, and reaction time) on degradation efficiency was investigated and optimized.
All experiments were triplicated and data reported were mean values of three independent measurements.

SMILES | viability at 24 h, 0.0425 μg/ml [1] [%] | viability at 24 h, 0.85 μg/ml [1] [%] | viability at 24 h, 1.7 μg/ml [1] [%] | degradation efficiency ([2]; 10.59 μM (2.5 mg/L) CBZ, 107.19 μM H2O2, 2.9 nM CPO, 10 min) [%] | optimum pH for degradation [3] | degradation efficiency ([2]; 62.45 μM SMZ, 1.3 nM CPO, H2O2 added stepwise, 30 min) [%] | EC50 [4] [µg/mL] | CPO concentration for complete degradation [5] | fraction of drug degraded within 1 min [5] | time to complete degradation [5] [min] | pH of maximum degradation efficiency [5]
NC(=O)N1c2ccccc2C=Cc2ccccc21 [CBZ, Carbamazepine] | 80 | 60 | 45 | 100 | 3.0 |  |  |  |  |  | 
Cc1cc(C)nc(NS(=O)(=O)c2ccc(N)cc2)n1 [SMZ, Sulfamethazine] | 80 | 50 | 40 |  |  | 100 |  |  |  |  | 
O=C([O-])Cc1ccccc1Nc1c(Cl)cccc1Cl.[Na+] [diclofenac, 2-[(2,6-dichlorophenyl)amino]benzeneacetic acid; sodium salt] |  |  |  |  |  |  | 0.25 | above 5.0 nmol·L^−1 | about 70% | 9 | ~3.2
COc1ccc2cc(C(C)C(=O)O)ccc2c1 (stereo not shown) [naproxen, 2-(6-methoxynaphthalen-2-yl)propionic acid] |  |  |  |  |  |  | 0.33 (≈ 1.43 µM) | > 20.0 nmol/L | ~75% | 7 | ~3.2

Reference: patent US10301203B2, “Chloroperoxidase-catalyzed degradation of pharmaceutical pollutants in wastewater” (THE FLORIDA INTERNATIONAL UNIVERSITY BOARD OF TRUSTEES, priority 2017, dated 2019)
